{
  "source": "ChEMBL document CHEMBL1138327",
  "about": "“Metal-based paullones as putative CDK inhibitors for antitumor chemotherapy” (2007)",
  "format_in_all_cases": "functional",
  "key": {"[1]": {"system": "A549", "assay": "Cell cycle arrest in human A549 cells assessed as accumulation at G2/M phase at 30 nM after 24 hrs by flow cytometry"}, "[2]": {"system": "A549", "assay": "Cell cycle arrest in human A549 cells assessed as accumulation at S phase at 30 nM after 24 hrs by flow cytometry"}, "[3]": {"system": "A549", "assay": "Cell cycle arrest in human A549 cells assessed as accumulation at G0/G1 phase at 30 nM after 24 hrs by flow cytometry"}},
  "data": [
    {"molecule": "CN[C@@H]1C[C@H]2O[C@@](C)([C@@H]1OC)n1c3ccccc3c3c4c(c5c6ccccc6n2c5c31)C(=O)NC4", "note": "[STAUROSPORINE]", "values": [
      {"measurement": "Activity", "setting": "[1]", "result": 9.1, "unit": "%"},
      {"measurement": "Activity", "setting": "[2]", "result": 16.4, "unit": "%"},
      {"measurement": "Activity", "setting": "[3]", "result": 74.6, "unit": "%"}
    ]}
  ]
}
